The values that follow come from PMC4511751, “Rapid Expansion of Phenylthiocarbamide Non-Tasters among Japanese Macaques” (PLoS ONE, 2015).

The target in one assay is T1, MmTAS2R38WT-a (Macaca mulatta, UniProt F1T2U6).
T1 construct: gene tas2r38; full-length TAS2R38, N-terminal first 45 residues of rat ssr3 and C-terminal last 8 residues of bovine rhodopsin as tags, pEAK10, HEK293T, co-expressed with chimeric G-alpha16gust44
T1 sequence (F1T2U6 1-333): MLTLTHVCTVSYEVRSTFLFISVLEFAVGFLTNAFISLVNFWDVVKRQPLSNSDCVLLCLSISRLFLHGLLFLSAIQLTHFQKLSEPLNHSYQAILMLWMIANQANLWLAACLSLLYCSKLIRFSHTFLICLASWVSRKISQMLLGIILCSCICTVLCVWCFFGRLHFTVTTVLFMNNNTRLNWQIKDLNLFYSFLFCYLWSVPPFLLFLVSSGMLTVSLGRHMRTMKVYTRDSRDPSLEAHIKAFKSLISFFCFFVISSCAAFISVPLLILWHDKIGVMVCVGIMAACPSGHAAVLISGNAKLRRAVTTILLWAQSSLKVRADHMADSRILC
Put plainly: calcium imaging, fluo-4, FlexStation, HEK293T with G-alpha16gust44. Format: cell-based.

The target in another assay is T2, MfTAS2R38TR-K (Macaca fuscata, UniProt F1T2T8).
T2 construct: gene tas2r38
T2 sequence (F1T2T8 1-237): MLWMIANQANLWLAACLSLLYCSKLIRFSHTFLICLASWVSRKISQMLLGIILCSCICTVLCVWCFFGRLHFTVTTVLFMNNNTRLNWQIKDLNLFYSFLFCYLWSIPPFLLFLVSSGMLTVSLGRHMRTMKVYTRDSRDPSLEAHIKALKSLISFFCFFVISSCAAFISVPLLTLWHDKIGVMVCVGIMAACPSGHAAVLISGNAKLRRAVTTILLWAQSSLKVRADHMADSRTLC
Particulars: truncated allele Mf-K; pH 7.4.

Regarding `NC(=S)Nc1ccccc1` [phenylthiocarbamide], on MmTAS2R38WT-a, the EC50 amounted to 560 nM. For the same compound, at MfTAS2R38TR-K, the “calcium imaging, fluo-4, FlexStation, HEK293T with G-alpha16gust44” value is “failed to respond to PTC”.

What is called EC50 is the concentration that produces a half-maximal response.
